This test concerns genotype Ib HCV replicon. Description: HCV replicon luciferase assay, monotherapy and triple combination studies. It counts as cell-based. Conditions: monotherapy, 3 days, Expt 1-3. From the text:
The HCV replicons used in these studies were generated at Bristol-Myers Squibb using the procedure described in WO2004014852. […] The functional replicon was then assembled in plasmid pGem9zf(+) (Promega, Madison, Wis.) using standard molecular biology techniques. To create a replicon encoding a luciferase reporter, the gene encoding humanized Renilla Luciferase protein was introduced upstream of the neomycin phosphotransferase gene.
HCV replicon cell lines were isolated from colonies as described by Lohman, et. al (Lohmann, V., F. Korner, J.-O. Koch, U. Herian, L. Theilmann, and R. Bartenschlager 1999, Science 285:110-113) and used for all experiments. Briefly, replicon clones were linearized with ScaI and RNA transcripts synthesized in vitro using the T7 MegaScript transcription kit (Ambion, Austin, Tex.) according to manufacturer's directions. […] After 24 h, selective media containing 0.5 mg/mL Geneticin (G418, Gibco-BRL, Rockville, Md.) was added and media was changed every 3 to 5 days. After approximately 4 weeks, cells were expanded for further analysis. Cells were maintained at 37° C. in DMEM (Gibco-BRL, Rockville, Md.) with 10% heat inactivated calf serum (Sigma), penicillin/streptomycin, and 0.5 mg/ml G418.
To determine compound efficacy, HCV replicon cells were plated at a density of 10^4 per well in 96-well plates in DMEM media containing 10% FBS. Following incubation overnight, compounds serially diluted in DMSO, or DMSO alone, were added to individual wells to a final DMSO concentration of 0.5%. Cell plates were then incubated at 37° C. for 3 days prior to assaying for cytotoxicity and HCV inhibition.
Plates were then washed two times with PBS and renilla luciferase activity assayed using a Dual-Glo Luciferase Assay System (Promega Corporation, Madison, Wis.) according to the manufacturer's directions. Plates were read on a TopCount NXT Microplate Scintillation and Luminescence Counter (Packard Instrument Company). The 50% effective concentration (EC50) was calculated by using Excel Fit (Version 2.0, Build 30).
Stock solutions, 200 times the desired final assay concentration, were prepared by 3-fold dilution in DMSO prior to addition to cells/media.
A general note: In antiviral work, replicon cells carry a viral genome segment that copies itself.

The values that follow come from patent US20140235617A1, “Combinations of Hepatitis C Virus Inhibitors” (BRISTOL-MYERS SQUIBB COMPANY, priority 2010, published 2014).

Structures are written as SMILES. Where “and” joins values, the source holds several entries; their conditions need not be identical. Equal entries are not always repeated. Where two headings read alike, the source gives them in different places.

`C=C[C@@H]1C[C@]1(NC(=O)[C@@H]1C[C@@H](Oc2ncc(OC)c3ccc(Cl)cc23)CN1C(=O)[C@@H](NC(=O)OC(C)(C)C)C(C)(C)C)C(=O)NS(=O)(=O)C1CC1` [NS3 PI]: the EC50 (commonly the concentration giving half of the maximal effect) (Hepatitis C virus, 72 h, read-out: NS3 PI EC50) was found to be 825 pM; the EC50 (read-out: NS3 PI EC50) is 1200 pM and 705 pM.

For `COC(=O)N[C@H](C(=O)N1CCCC1c1ncc(-c2ccc(-c3ccc(-c4cnc(C5CCCN5C(=O)[C@@H](NC(=O)OC)C(C)C)[nH]4)cc3)cc2)[nH]1)C(C)C` (stereo partly shown) [NS5A Inhibitor], the concentration giving a half-maximal response (EC50) reads like this: (Hepatitis C virus, 72 h, read-out: NS5A Inhibitor EC50) 2 pM; (read-out: NS5A Inhibitor EC50) 3 pM.
